Measured values: ChEMBL document CHEMBL5465560, “Selectivity Literature for EUbOPEN Chemogenomic Library” (2024)
Blank lines part the entries; values can stand above or below the molecule they belong to.

Assays:
[1] = target: Death-associated protein kinase 2 (Homo sapiens) (UniProt Q9UIK4); conditions: at 10 µM
[2] = target: Tyrosine-protein kinase JAK1 (Homo sapiens, UniProt P23458); conditions: at 10 µM
[3] = target: Cyclin-dependent kinase 14 (Homo sapiens) (UniProt O94921); assay: Selectivity interaction (ActivX KiNativ screen (kinase selectivity in THP-1 cell lysates)) EUB0000639a CDK14; type: subcellular; conditions: lysate, at 5 µM
[4] = test system: Mast/stem cell growth factor receptor Kit (Homo sapiens), P10721 [V559D,V654A]; conditions: at 10 µM
[5] = target: Mitogen-activated protein kinase 10 (Homo sapiens, UniProt P53779); conditions: at 10 µM
[6] = target: Cyclin-dependent kinase 19 (Homo sapiens) (UniProt Q9BWU1); assay: Selectivity interaction (KinomeScan (DiscoverX)) EUB0000229b CDK19; conditions: at 10 µM
[7] = target: Epithelial discoidin domain-containing receptor 1 (Homo sapiens) (UniProt Q08345); assay: Selectivity interaction (KinomeScan (DiscoverX)) EUB0000229b DDR1; conditions: at 10 µM
[8] = target: T1, Serine/threonine-protein kinase D3 (Homo sapiens) (UniProt O94806); assay: Selectivity interaction (KinomeScan (DiscoverX)) EUB0000229b PRKD3; conditions: at 10 µM
T1 sequence (whole entry): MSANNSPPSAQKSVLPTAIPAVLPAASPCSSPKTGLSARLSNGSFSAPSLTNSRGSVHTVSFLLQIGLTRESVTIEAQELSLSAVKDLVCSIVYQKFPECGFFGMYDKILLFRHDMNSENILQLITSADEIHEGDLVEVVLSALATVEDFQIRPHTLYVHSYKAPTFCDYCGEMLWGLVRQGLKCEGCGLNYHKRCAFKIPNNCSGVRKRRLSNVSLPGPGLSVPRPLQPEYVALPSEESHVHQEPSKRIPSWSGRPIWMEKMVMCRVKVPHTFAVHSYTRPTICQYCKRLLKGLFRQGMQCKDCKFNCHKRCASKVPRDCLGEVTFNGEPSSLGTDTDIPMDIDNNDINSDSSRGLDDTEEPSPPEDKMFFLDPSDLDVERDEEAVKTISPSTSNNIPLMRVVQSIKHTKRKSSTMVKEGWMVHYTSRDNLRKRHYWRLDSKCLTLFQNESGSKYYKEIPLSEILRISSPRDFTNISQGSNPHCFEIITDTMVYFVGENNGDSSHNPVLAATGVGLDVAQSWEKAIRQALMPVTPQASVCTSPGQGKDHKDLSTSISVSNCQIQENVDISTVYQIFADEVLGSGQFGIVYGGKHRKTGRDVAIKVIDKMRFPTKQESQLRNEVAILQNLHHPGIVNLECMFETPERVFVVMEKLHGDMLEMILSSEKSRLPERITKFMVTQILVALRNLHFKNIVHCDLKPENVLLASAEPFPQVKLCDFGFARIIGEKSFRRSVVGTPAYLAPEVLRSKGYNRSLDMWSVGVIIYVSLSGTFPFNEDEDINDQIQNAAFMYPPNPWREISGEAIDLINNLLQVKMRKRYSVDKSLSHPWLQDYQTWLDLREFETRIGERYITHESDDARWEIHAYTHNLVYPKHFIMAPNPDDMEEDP

[9] = target: Cyclin-dependent kinase 3 (Homo sapiens) (UniProt Q00526); assay: Selectivity interaction (KinomeScan (DiscoverX)) EUB0000092b CDK3; conditions: at 10 µM
[10] = target: Tyrosine-protein kinase BTK (Homo sapiens, UniProt Q06187); conditions: at 10 µM
[11] = target: T2, Cyclin-dependent kinase-like 5 (Homo sapiens) (UniProt O76039); assay: Selectivity interaction (KinomeScan (DiscoverX)) EUB0000618a CDKL5; conditions: at 10 µM
T2 sequence (whole entry): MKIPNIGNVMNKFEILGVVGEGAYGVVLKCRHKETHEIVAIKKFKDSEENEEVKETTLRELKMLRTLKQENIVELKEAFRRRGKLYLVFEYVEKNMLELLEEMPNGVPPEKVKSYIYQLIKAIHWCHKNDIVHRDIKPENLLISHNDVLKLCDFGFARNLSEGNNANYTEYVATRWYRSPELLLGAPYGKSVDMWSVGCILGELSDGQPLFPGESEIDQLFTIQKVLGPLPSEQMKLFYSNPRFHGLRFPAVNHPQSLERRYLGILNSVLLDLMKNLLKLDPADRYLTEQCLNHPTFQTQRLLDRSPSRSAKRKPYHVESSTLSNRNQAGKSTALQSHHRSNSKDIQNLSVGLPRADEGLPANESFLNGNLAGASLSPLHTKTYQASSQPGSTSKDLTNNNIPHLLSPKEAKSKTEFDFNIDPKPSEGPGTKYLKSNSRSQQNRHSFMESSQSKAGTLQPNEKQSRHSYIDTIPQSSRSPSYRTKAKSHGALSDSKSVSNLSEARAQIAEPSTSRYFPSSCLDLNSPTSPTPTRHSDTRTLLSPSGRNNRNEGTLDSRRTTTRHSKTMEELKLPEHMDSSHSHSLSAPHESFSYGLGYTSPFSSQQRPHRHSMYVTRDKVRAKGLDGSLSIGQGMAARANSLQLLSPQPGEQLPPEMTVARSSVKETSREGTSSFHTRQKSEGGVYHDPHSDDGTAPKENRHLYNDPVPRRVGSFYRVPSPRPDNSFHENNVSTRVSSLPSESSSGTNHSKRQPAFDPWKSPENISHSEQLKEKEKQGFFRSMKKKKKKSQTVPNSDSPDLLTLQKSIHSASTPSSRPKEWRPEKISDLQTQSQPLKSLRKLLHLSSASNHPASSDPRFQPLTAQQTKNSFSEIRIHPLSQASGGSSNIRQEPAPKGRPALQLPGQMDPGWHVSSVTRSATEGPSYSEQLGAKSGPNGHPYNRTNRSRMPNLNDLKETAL

[12] = target: Ephrin type-A receptor 4 (Homo sapiens, UniProt P54764); assay: Selectivity interaction (KinomeScan (DiscoverX)) EUB0000607a EPHA4; conditions: at 10 µM
[13] = target: Tyrosine-protein kinase HCK (Homo sapiens) (UniProt P08631); assay: Selectivity interaction (KinomeScan (DiscoverX)) EUB0000607a HCK; conditions: at 10 µM
[14] = target: High affinity nerve growth factor receptor (Homo sapiens, UniProt P04629); assay: Selectivity interaction (KinomeScan (DiscoverX)) EUB0000666a NTRK1; conditions: at 10 µM
[15] = target: Ephrin type-A receptor 2 (Homo sapiens) (UniProt P29317); assay: Selectivity interaction (Kinase panel (DSF assay)) EUB0001558a EPHA2
Sequence of Ephrin type-A receptor 2 (Homo sapiens) (P29317 whole entry): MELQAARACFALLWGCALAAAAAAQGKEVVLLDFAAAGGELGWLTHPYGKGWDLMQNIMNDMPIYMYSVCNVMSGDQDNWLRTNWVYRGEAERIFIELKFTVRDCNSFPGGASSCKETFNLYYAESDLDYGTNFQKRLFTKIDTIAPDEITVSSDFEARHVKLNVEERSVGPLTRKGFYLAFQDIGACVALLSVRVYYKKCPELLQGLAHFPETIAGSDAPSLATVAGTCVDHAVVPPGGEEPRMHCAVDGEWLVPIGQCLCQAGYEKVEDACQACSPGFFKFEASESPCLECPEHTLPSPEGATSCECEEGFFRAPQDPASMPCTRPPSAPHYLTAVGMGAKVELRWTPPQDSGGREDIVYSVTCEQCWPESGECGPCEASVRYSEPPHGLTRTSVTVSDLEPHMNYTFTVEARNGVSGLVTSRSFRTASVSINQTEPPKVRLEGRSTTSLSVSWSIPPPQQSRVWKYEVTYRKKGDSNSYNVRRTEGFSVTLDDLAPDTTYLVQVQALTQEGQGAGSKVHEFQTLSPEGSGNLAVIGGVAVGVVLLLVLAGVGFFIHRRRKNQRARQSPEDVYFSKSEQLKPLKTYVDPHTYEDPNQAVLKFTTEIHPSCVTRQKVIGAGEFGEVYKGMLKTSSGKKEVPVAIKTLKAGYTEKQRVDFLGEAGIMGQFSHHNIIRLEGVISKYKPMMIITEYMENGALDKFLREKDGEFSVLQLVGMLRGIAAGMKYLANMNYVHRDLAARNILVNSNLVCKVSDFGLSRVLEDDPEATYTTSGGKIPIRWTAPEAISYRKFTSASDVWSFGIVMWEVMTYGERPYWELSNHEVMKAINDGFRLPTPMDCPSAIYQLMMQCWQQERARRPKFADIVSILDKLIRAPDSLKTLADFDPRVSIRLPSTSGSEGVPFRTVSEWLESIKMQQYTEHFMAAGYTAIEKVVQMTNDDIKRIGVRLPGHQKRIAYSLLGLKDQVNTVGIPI

Sequence of Tyrosine-protein kinase BTK (Q06187 whole entry): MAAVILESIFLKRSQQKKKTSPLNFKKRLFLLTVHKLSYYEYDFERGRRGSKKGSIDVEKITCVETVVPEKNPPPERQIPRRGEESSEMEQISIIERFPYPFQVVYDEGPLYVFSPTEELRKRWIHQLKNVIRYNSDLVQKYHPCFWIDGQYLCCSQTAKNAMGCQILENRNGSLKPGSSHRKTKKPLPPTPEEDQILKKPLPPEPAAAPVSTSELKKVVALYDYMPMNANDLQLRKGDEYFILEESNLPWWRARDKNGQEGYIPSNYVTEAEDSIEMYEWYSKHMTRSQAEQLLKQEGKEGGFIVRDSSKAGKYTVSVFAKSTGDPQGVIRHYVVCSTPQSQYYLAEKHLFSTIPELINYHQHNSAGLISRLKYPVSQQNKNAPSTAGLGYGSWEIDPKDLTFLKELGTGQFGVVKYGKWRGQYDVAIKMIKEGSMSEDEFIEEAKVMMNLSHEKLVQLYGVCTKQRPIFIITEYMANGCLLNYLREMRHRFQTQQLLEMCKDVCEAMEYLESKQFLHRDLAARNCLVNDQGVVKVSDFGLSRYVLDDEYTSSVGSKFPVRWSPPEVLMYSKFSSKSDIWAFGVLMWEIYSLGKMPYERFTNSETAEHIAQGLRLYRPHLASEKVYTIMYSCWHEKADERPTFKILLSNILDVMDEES
Sequence of Death-associated protein kinase 2 (Homo sapiens) (Q9UIK4 whole entry, looked up): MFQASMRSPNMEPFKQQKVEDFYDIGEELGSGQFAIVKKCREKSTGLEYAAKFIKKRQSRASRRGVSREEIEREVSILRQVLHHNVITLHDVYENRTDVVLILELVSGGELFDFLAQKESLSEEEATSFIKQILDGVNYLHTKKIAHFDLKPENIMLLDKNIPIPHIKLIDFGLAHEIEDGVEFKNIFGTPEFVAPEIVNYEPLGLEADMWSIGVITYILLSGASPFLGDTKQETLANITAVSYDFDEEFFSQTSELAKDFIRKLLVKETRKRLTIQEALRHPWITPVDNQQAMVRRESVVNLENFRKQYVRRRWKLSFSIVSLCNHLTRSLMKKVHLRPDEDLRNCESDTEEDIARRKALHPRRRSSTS
Sequence of Mitogen-activated protein kinase 10 (P53779 whole entry): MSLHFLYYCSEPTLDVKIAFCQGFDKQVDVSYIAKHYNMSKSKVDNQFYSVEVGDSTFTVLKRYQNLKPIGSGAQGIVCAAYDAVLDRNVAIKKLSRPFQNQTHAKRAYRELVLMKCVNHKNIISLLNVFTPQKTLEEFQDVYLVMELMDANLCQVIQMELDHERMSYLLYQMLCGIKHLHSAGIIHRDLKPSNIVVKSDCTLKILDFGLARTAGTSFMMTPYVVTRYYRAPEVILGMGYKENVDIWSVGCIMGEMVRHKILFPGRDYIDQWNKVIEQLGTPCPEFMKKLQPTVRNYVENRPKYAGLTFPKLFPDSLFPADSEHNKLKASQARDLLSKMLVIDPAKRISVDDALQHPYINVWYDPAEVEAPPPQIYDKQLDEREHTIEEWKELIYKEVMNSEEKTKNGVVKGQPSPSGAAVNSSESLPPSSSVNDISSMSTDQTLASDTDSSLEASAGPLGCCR
Sequence of Cyclin-dependent kinase 14 (Homo sapiens) (O94921 whole entry): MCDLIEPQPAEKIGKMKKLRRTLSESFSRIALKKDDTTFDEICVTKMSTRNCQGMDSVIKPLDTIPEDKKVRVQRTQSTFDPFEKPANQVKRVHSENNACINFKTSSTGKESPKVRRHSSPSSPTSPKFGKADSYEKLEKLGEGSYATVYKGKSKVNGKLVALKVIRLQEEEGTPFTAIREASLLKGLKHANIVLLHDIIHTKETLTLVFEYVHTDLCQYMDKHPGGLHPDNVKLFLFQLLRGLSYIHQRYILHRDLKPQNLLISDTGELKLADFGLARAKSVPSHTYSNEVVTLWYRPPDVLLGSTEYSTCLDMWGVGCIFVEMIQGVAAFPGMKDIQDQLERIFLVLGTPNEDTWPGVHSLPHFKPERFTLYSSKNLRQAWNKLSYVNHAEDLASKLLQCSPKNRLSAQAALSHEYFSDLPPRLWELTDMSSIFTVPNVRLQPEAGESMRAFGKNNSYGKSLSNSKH
Sequence of Cyclin-dependent kinase 19 (Homo sapiens) (Q9BWU1 whole entry, the tested form may be a part): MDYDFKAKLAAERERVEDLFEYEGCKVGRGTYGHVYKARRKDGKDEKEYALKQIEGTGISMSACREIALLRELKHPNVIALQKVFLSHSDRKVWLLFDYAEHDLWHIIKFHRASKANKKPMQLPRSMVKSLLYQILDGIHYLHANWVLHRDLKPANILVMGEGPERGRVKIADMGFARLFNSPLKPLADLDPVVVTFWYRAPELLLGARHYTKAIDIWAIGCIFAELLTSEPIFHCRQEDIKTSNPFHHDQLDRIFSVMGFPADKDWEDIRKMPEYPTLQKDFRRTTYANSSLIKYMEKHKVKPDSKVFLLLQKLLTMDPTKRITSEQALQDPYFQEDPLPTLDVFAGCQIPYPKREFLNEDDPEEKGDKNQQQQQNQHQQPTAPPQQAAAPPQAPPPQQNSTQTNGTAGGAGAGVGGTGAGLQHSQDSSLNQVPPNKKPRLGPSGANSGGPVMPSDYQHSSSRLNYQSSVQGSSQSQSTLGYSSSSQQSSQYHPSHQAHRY
Sequence of Tyrosine-protein kinase JAK1 (P23458 whole entry): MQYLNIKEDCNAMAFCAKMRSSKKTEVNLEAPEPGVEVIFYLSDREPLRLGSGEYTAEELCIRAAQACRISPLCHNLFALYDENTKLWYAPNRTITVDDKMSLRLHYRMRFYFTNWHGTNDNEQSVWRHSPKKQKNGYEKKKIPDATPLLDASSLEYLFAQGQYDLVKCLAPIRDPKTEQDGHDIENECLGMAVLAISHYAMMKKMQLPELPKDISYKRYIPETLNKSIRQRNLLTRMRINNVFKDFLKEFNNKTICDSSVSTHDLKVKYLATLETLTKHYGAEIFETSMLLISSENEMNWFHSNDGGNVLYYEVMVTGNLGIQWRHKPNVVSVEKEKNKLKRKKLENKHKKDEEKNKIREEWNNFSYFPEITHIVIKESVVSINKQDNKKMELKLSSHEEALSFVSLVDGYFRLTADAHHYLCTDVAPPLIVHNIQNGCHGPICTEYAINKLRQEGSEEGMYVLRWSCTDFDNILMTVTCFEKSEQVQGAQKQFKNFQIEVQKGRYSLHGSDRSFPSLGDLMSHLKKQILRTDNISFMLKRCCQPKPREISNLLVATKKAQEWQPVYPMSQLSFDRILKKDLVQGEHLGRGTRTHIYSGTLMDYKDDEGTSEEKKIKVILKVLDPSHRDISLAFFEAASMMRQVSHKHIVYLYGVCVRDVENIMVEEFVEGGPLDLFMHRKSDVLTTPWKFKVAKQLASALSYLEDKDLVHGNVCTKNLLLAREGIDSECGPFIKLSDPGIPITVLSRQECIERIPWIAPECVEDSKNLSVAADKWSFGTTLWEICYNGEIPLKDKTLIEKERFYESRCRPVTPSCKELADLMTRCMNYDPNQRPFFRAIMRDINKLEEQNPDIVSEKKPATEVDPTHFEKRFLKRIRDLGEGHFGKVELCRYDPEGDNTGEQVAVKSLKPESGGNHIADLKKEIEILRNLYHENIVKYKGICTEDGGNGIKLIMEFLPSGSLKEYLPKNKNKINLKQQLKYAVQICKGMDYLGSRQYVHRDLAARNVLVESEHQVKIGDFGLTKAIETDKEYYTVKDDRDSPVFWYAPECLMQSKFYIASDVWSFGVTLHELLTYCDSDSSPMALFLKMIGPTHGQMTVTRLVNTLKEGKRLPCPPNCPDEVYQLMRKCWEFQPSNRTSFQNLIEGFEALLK
Sequence of Cyclin-dependent kinase 3 (Homo sapiens) (Q00526 whole entry, looked up): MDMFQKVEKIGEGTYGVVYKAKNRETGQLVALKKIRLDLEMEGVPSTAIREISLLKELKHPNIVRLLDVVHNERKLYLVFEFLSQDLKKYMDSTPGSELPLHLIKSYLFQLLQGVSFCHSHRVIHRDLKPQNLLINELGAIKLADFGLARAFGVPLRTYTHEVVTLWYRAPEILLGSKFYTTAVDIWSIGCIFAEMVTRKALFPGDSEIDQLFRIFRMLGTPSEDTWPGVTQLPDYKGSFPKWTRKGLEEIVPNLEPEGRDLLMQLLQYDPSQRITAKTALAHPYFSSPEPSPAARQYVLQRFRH

SMILES: Cc1cc([C@@H](C)Nc2ccccc2C(=O)O)c2nc(N3CCOCC3)cc(=O)n2c1 [AZD-6482]
- % of control [1]: 92%
- % of control [2]: 100%

- % of inhibition [3]: 12.8%
SMILES: CC[C@@H]1[C@H](F)C(=O)N[C@@H]1COc1nccc2cc(C(N)=O)c(OC)cc12 [ZIMLOVISERTIB]

- % of control [4]: 100%
- % of control [5]: 100%
SMILES: CCN(CC)CCCCNc1ncc2cc(-c3cc(OC)cc(OC)c3)c(NC(=O)NC(C)(C)C)nc2n1

SMILES: COc1cc(N(C)c2ccnc3ccc(C(F)(F)F)cc23)cc(OC)c1OC
- % binding [6]: 69%
- % binding [7]: 78%
- % binding [8]: 58%

SMILES: CCC(=O)N1CCN(c2ccc(-n3c(=O)ccc4cnc5ccc(-c6cnc7ccccc7c6)cc5c43)cc2C(F)(F)F)CC1
- % of control [9]: 100%

SMILES: C=CC(=O)Nc1cc(-n2c(=O)ccc3cnc4ccc(-c5ccc(NS(C)(=O)=O)cc5)cc4c32)ccc1C
- % of control [10]: 0.7%

SMILES: O[C@H]1CC[C@H](Nc2ncc3nc(Nc4c(F)cc(F)cc4F)n([C@H]4CCOC4)c3n2)CC1
- % of control [11]: 100%

SMILES: CNC(=O)Nc1ccc(-c2nc(N3CC4CCC(C3)O4)c3cnn(C4CCC5(CC4)OCCO5)c3n2)cc1
- % of control [12]: 100%
- % of control [13]: 100%

SMILES: O=C(NOC[C@H](O)CO)c1ccc(F)c(F)c1Nc1ccc(I)cc1F
- % of control [14]: 100%

SMILES: CC(C)(O)[C@H](F)CN1Cc2cc(NC(=O)c3cnn4cccnc34)c(N3CCOCC3)cc2C1=O
- dTM [15]: 3.4 K
